Measured values: US10183919B2 (priority 2014, dated 2019)
Where a name gives a salt, the structure may show the parent alone. Read-outs that look alike come from different tables or passages of the source.

What was measured:
Human MOR = target: T1, Human MOR (Homo sapiens, UniProt P35372); test: cell-based
T1 construct: expressed in transfected cells; host or cells: HEK-293T
Source text: (§1) Transfection. Human or mouse MOR cDNA was transfected alongside GαoB with RLuc8 inserted at position 91 (GαoB-RLuc8), Gβ1 (β1), and Gγ2 fused to the full-length mVenus at its N terminus (mVenus-γ2) into HEK-293T cells (5×10^6 cells/plate) in 10-cm dishes using PEI (Polysciences Inc.; Warrington, Pa.) in a 1:1 ratio diluted in Opti-MEM (Life Technologies Corp.; Grand Island, N.Y.) to assay for G protein activation as described previously (Rives, M.-L. et al. J. Biol. Chem. 2012, 287, 27050-4; Negri, A.; Rives, M.-L.; Caspers, M. J. et al. J. Chem. Inf. Model. 2013, 53, 521-526). Cells were maintained in the Dulbecco's Modified Eagle Medium (high glucose #11965; Life Technologies) supplemented with 10% FBS (Premium Select, Atlanta Biologicals; Atlanta, Ga.) and 100 U/mL penicillin and 100 μg/mL streptomycin (#15140, Life Technologies). After 24 hours the media was changed, and the experiment was performed 24 hours later (48 hours after transfection).
(§2) BRET. Transfected cells were dissociated and resuspended in phosphate-buffered saline (PBS). Approximately 200,000 cells/well were added to a black-framed, white well 96-well plate (#60050; Perkin Elmer; Waltham, Mass.). The microplate was centrifuged and the cells were resuspended in PBS. Then 5 μM of the luciferase substrate coelenterazine H was added to each well for 5 minutes. Following coelenterazine H addition, ligands were added and the BRET signal was measured at 5 minutes on a PHERAstar FS plate reader. Quantification of the BRET signal required calculating the ratio of the light emitted by the energy acceptor, mVenus (510-540 nm), over the light emitted by the energy donor, RLuc8 (485 nm). […] Dose response curves were fit using three-parameter logistics equation in GraphPad Prism 6.

Mouse MOR = target: T2, Mouse MOR (Mus musculus, UniProt P42866); test: BRET G protein activation assay, HEK-293T cells transfected with mouse MOR; format: cell-based
T2 construct: expressed in transfected cells; host or cells: HEK-293T
Source text: as §1, §2

[1] = BRET G protein activation, HEK-293T, mean ± SEM of independent trials, read-out: EC50 Human MOR

T2 sequence (P42866 whole entry): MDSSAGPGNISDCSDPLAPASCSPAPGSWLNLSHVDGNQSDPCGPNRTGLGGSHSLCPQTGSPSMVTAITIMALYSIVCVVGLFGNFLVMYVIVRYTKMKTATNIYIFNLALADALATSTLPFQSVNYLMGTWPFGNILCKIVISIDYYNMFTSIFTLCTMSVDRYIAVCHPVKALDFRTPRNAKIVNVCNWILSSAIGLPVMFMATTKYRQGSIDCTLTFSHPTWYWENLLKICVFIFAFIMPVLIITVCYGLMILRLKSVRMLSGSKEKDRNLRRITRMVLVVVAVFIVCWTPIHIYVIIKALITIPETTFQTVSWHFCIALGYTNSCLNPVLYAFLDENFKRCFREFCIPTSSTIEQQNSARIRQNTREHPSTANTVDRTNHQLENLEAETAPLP
T1 sequence (P35372 whole entry): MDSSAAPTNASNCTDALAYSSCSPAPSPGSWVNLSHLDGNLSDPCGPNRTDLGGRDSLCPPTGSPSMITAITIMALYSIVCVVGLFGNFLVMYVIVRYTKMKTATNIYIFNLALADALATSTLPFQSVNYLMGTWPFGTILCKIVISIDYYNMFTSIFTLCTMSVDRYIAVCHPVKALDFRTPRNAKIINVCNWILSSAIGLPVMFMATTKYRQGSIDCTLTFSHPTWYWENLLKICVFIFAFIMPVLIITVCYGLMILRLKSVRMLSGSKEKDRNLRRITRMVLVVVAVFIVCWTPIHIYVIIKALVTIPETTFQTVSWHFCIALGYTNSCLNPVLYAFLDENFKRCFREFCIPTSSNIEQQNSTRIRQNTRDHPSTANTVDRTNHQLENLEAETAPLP

Structure (SMILES)	EC50 (Human MOR)	also measured
CN1c2ccccc2C(NCCCCCCC(=O)O)c2ccccc2S1(=O)=O (stereo not shown) [compound 80, 7-((6-Methyl-5,5-dioxido-6,11-dihydrodibenzo[c,f][1,2]thiazepin-11-yl)amino)heptanoic acid hydrochloride salt]	< 10 µM	EC50 (Mouse MOR): < 10 µM
CN1c2ccccc2C(NCCCCC(=O)O)c2ccc(Cl)cc2S1(=O)=O (stereo not shown) [compound 18, 5-((3-Chloro-6-methyl-5,5-dioxido-6,11-dihydrodibenzo[c,f][1,2]thiazepin-11-yl)amino)pentanoic acid]	< 10 µM	EC50 (Mouse MOR): < 10 µM
CCCCCNC1c2ccccc2N(C)S(=O)(=O)c2ccccc21 (stereo not shown) [compound 8, 6-Methyl-11(pentylamino)-6,11-dihydrodibenzo[c,f][1,2]thiazepine 5,5-dioxide]	< 10 µM	EC50 (Mouse MOR; BRET G protein activation, HEK-293T, mean ± SEM of independent trials, read-out: EC50 Mouse MOR): < 10 µM
CCOC(=O)CCCCCCNC1c2ccccc2N(C)S(=O)(=O)c2ccccc21 (stereo not shown) [compound 9, Ethyl 7-((6-methyl-5,5-dioxido-6,11-dihydrodibenzo[c,f][1,2]thiazepin-11-yl)amino)heptanoate]	< 10 µM	EC50 (Mouse MOR): < 10 µM
CCOC(=O)CCCCNC1c2ccccc2N(C)S(=O)(=O)c2cc(Cl)ccc21 (stereo not shown) [compound 17, Ethyl 5-((3-chloro-6-methyl-5,5-dioxido-6,11-dihydrodibenzo[c,f][1,2]thiazepin-11-yl)amino)pentanoate]	< 10 µM	EC50 (Mouse MOR): < 10 µM
COCCCNC1c2ccccc2N(C)S(=O)(=O)c2cc(-c3ccccc3)ccc21 (stereo not shown) [compound 56, 11-((3-Methoxypropyl)amino)-6-methyl-3-phenyl-6,11-dihydrodibenzo[c,f][1,2]thiazepine 5,5-dioxide]	< 10 µM	–
CCOCCCNC1c2ccc(Br)cc2S(=O)(=O)N(C)c2ccsc21 (stereo not shown) [compound 73, 7-Bromo-10-((3-ethoxypropyl)amino)-4-methyl-4,10-dihydrobenzo[f]thieno[3,2-c][1,2]thiazepine 5,5-dioxide]	< 10 µM	–
COCCCNC1c2ccc(Br)cc2S(=O)(=O)N(C)c2ccsc21 (stereo not shown) [compound 72, 7-Bromo-10-((3-methoxypropyl)amino)-4-methyl-4,10-dihydrobenzo[f]thieno[3,2-c][1,2]thiazepine 5,5-dioxide]	< 10 µM	–
CCOC(=O)CCCCCCNC1c2ccccc2N(CC)S(=O)(=O)c2ccccc21 (stereo not shown) [compound 66, Ethyl 7-((6-ethyl-5,5-dioxido-6,11-dihydrodibenzo[c,f][1,2]thiazepin-11-yl)amino)heptanoate]	< 10 µM	–
COCCCNC1c2cc(Br)ccc2N(C)S(=O)(=O)c2cc(Cl)ccc21 (stereo not shown) [compound 11]	< 10 µM	–
CCOCCCNC1c2ccc(Cl)cc2S(=O)(=O)N(C)c2ccsc21 (stereo not shown) [compound 78, 7-Chloro-10-((-ethoxypropyl)amino)-4-methyl-4,10-dihydrobenzo[f]thieno[3,2-c][1,2]thiazepine 5,5-dioxide]	< 10 µM	–
CCOC(=O)CCCCCCNC1c2ccccc2N(C)S(=O)(=O)c2cc(I)ccc21 (stereo not shown) [compound 49, Ethyl 7-((3-iodo-6-methyl-5,5-dioxido-6,11-dihydrodibenzo[c,f][1,2]thiazepin-11-yl)amino)heptanoate]	0.137 ± 0.017 µM	–
CCOCCCNC1c2ccccc2N(C)S(=O)(=O)c2cc(Cl)ccc21 (stereo not shown) [compound 37, 3-Chloro-11-((3-ethoxypropyl)amino)-6-methyl-6,11-dihydrodibenzo [c,f][1,2]thiazepine 5,5-dioxide]	–	EC50 (Human MOR; [1]): 0.893 ± 0.147 µM
CCN1c2ccccc2C(NCCCOC)c2ccccc2S1(=O)=O (stereo not shown) [compound 65, 6-Ethyl-11-((3-methoxpropyl)amino)-6,11-dihydrodibenzo[c,f][1,2]thiazepine 5,5-dioxide]	> 20 µM	–
CN1c2ccccc2C(NCCCC(F)(F)F)c2ccc(Cl)cc2S1(=O)=O (stereo not shown) [compound 28, 3-Chloro-6-methyl-11-((4,4,4-trifluorobutyl)amino)-6,11-dihydrodibenzo [c,f][1,2]thiazepine 5,5-dioxide]	< 10 µM	–
COCCCCNC1c2ccccc2N(C)S(=O)(=O)c2cc(Cl)ccc21 (stereo not shown) [compound 39, 3-Chloro-11-((4-methoxybutyl)amino)-6-methyl-6,11-dihydrodibenzo [c,f][1,2]thiazepine 5,5-dioxide]	< 10 µM	–
CN1c2ccccc2C(NCC2CCOC2)c2ccc(Cl)cc2S1(=O)=O (stereo not shown) [compound 46]	< 10 µM	–
CCOC(=O)CCCCCCNC1c2ccccc2N(C)S(=O)(=O)c2cc(F)ccc21 (stereo not shown) [compound 41, Ethyl 7-((3-fluoro-6-methyl-5,5-dioxido-6,11-dihydrodibenzo[c,f][1,2]thiazepin-11-yl)amino)heptanoate]	2.04 ± 0.334 µM	–

Structure (SMILES)	EC50 (Human MOR)	also measured
CCOC(=O)CCCCCCNC1c2ccc(Cl)cc2S(=O)(=O)N(C)c2ccsc21 (stereo not shown) [compound 79, Ethyl 7-((7-chloro-4-methyl-5,5-dioxido-4,10-dihydrobenzo[f]thieno[3,2-c][1,2]thiazepin-10-yl)amino)heptanoate]	< 10 µM	–
CCOC(=O)CCCCCCNC1c2ccccc2N(C)S(=O)(=O)c2cc(Cl)ccc21 (stereo not shown) [compound 34, Ethyl 7-((3-chloro-6-methyl-5,5-dioxido-6,11-dihydrodibenzo[c,f][1,2]thiazepin-11-yl)amino)heptanoate]	0.657 ± 0.366 µM	–
CCOC(=O)CCCCCCNC1c2ccccc2N(C)S(=O)(=O)c2ccc(Cl)cc21 (stereo not shown) [compound 61, Ethyl 7-((2-chloro-6-methyl-5,5-dioxido-6,11-dihydrodibenzo[c,f] [1,2]thiazepin-11-yl)amino)heptanoate]	< 10 µM	–
CCOC(=O)CCCCCCNC1c2ccccc2S(=O)(=O)N(C)c2c(O)cccc21 (stereo not shown) [compound 62]	–	EC50 (Human MOR; [1]): > 20 µM
CCSc1ccc2c(c1)S(=O)(=O)N(C)c1ccccc1C2NCCCOC (stereo not shown) [compound 64, 3-(Ethylthio)-11-((3-methoxypropyl)amino)-6-methyl-6,11-dihydrodibenzo[c,f][1,2]thiazepine 5,5-dioxide]	< 10 µM	–
CCOC(=O)CCCCCCNC1c2ccc(Cl)cc2N(C)S(=O)(=O)c2ccccc21 (stereo not shown) [compound 70, Ethyl 7-((8chloro-6-methyl-5,5-dioxido-6,11-dihydrodibenzo[c,f][1,2]thiazepin-11-yl)amino)heptanoate]	< 10 µM	–
COCCCNC1c2ccccc2S(=O)(=O)N(C)c2c(Br)csc21 (stereo not shown) [compound 43, 3-Bromo-10-((3-methoxypropyl)amino)-4-methyl-4,10-dihydrobenzo[f]thieno[3,2-c][1,2]thiazepine 5,5-dioxide]	< 20 µM	–
COCCCNC1c2ccccc2N(C)S(=O)(=O)c2ccc(Cl)cc21 (stereo not shown) [compound 60]	< 20 µM	–
Cc1ccc2c(c1)S(=O)(=O)N(C)c1ccccc1C2NCCCCCCC(=O)O (stereo not shown) [compound 16]	< 10 µM	–
CCOC(=O)CCCCCCNC1c2ccccc2N(C)S(=O)(=O)c2cc(Br)ccc21 (stereo not shown) [compound 81, Ethyl 7-((3-bromo-6-methyl-5,5-dioxido-6,11-dihydrodibenzo [c,f] [1,2]thiazepin-11-yl)amino)heptanoate]	0.573 µM	–
COCCCNC1c2ccc(Cl)cc2N(C)S(=O)(=O)c2ccccc21 (stereo not shown) [compound 69, 8-Chloro-11-((3-methoxypropyl)amino)-6-methyl-6,11-dihydrodibenzo [c,f][1,2]thiazepine 5,5-dioxide]	< 20 µM	–
CCOC(=O)CCCCCCNC1c2ccccc2S(=O)(=O)N(C)c2ccsc21 (stereo not shown) [compound 6, Ethyl 7-((4-methyl-5,5-dioxido-4,10-dihydrobenzo[f]thieno[3,2-c][1,2]thiazepin-10-yl)amino) heptanoate]	< 10 µM	–
CN1c2ccccc2C(NCCCO)c2ccc(Cl)cc2S1(=O)=O (stereo not shown) [compound 83, 3-Chloro-11-((3-hydroxypropyl)amino)-6-methyl-6,11-dihydrodibenzo[c,f][1,2] iazepine 5,5-dioxide]	1.81 µM	–
COCC(C)CNC1c2ccccc2N(C)S(=O)(=O)c2cc(Cl)ccc21 (mixture of isomers) [compound 68, 3-Chloro-11-((3-methoxy-2-methylpropyl)amino)-6-methyl-6,11-dihydrodibenzo[c,f][1,2]thiazepine 5,5-dioxide]	< 10 µM	–
COCCCNC1c2ccccc2N(C)S(=O)(=O)c2cc(F)ccc21 (stereo not shown) [compound 40, 3-Fluoro-11-((3-methoxypropyl)amino)-6-methyl-6,11-dihydrodibenzo[c,f] [1,2]thiazepine 5,5-dioxide]	5.53 ± 0.25 µM	–
CC(C)OCCCNC1c2ccccc2N(C)S(=O)(=O)c2cc(Cl)ccc21 (stereo not shown) [compound 35, 3-Chloro-11-((3-isopropoxypropyl)amino)-6-methyl-6,11-dihydrodibenzo [c,f][1,2]azepine 5,5-dioxide]	< 10 µM	–
CC(=O)OCCCCCCNC1c2ccccc2N(C)S(=O)(=O)c2cc(Cl)ccc21 (stereo not shown) [compound 13, 6-((3-Chloro-6-methyl-5,5-dioxido-6,11-dihydrodibenzo[c,f][1,2]thiazepin-11-yl)amino)hexyl acetate]	< 10 µM	–
